# PubChem BioAssay (NCI)
# “And” between values parts separate entries of the source, which are not always exact repeats. Identical values can stand only once.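 The compound was tested at five concentrations on cells cultured in 96-well plates, with a 48-hour exposure period. Here, GI50 denotes the concentration required for 50% inhibition of growth. TGI denotes the concentration required for complete inhibition of growth.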 Where a SMILES comes first, the peptide text is derived from it. [ ]: non-standard residue; d: D form. Aoe = N[C@@H](CCCCCC(=O)[C@@H]1CO1)C(=O)O
# Legend:
# Assay in all cases: NCI tumour cell line growth inhibition, 48 h
# [1] = tested on: SR leukemia
# [2] = tested on: KM12 colon
# [3] = tested on: CCRF-CEM leukemia
# [4] = tested on: SK-MEL-28 melanoma
# [5] = tested on: SNB-75 CNS
# [6] = tested on: ACHN renal
# [7] = tested on: EKVX NSCLC
# [8] = tested on: UO-31 renal
# [9] = tested on: UACC-257 melanoma
# [10] = tested on: PC-3 prostate
# [11] = tested on: A549 NSCLC
# [12] = tested on: A498 renal
# [13] = tested on: CAKI-1 renal
# [14] = tested on: RXF 393 renal
# [15] = tested on: K-562 leukemia
# [16] = tested on: NCI-H23 lung
# [17] = tested on: OVCAR-5 ovarian
# [18] = tested on: SK-OV-3 ovarian
# [19] = tested on: LOX IMVI melanoma
# [20] = tested on: OVCAR-3 ovarian
# [21] = tested on: SK-MEL-2 melanoma
# [22] = tested on: MCF7 breast
# [23] = tested on: HL-60(TB) leukemia
# [24] = tested on: NCI-H226 lung
# [25] = tested on: HCC-2998 colon
# [26] = tested on: RPMI-8226 leukemia
# [27] = tested on: SN12C renal
# [28] = tested on: MDA-MB-231 breast
# [29] = tested on: SK-MEL-5 melanoma
# [30] = tested on: T-47D breast
# [31] = tested on: NCI/ADR-RES ovarian
# [32] = tested on: M14 melanoma
# [33] = tested on: SW-620 colon
# [34] = tested on: SF-268 CNS
# [35] = tested on: DU-145 prostate
# [36] = tested on: COLO 205 colon
# [37] = tested on: NCI-H522 lung
# [38] = tested on: HCT-15 colon
# [39] = tested on: HT29 colon
# [40] = tested on: HOP-62 NSCLC
# [41] = tested on: IGROV1 ovarian
# [42] = tested on: UACC-62 melanoma
# [43] = tested on: NCI-H460 lung
# [44] = tested on: HCT-116 colon
# [45] = tested on: TK-10 renal
# [46] = tested on: 786-0 renal
# [47] = tested on: SF-539 CNS
# [48] = tested on: OVCAR-8 ovarian
# [49] = tested on: SNB-19 CNS
# [50] = tested on: U251 CNS
# [51] = tested on: BT-549 breast
# [52] = tested on: HOP-92 NSCLC
# [53] = tested on: OVCAR-4 ovarian
# [54] = tested on: MOLT-4 leukemia
# [55] = tested on: MDA-MB-435
# [56] = tested on: MALME-3M melanoma
# [57] = tested on: SF-295 CNS
# [58] = tested on: HS 578T breast
structure (smiles),measurement,setting,value
COc1ccc2c(c1)[nH]c(=O)c1c3cc(OC)ccc3cn21,GI50,[1],< 10.6 nM
same,TGI,[1],62 nM
same,GI50,[2],< 10 nM
same,TGI,[2],393 nM
same,GI50,[3],< 13.2 nM
same,TGI,[3],75.1 nM
same,GI50,[4],10.2 nM
same,TGI,[4],2010 nM
same,GI50,[5],18.7 nM
same,TGI,[5],1610 nM
same,GI50,[6],19.9 nM
same,TGI,[6],1550 nM
same,GI50,[7],72.8 nM
same,TGI,[7],2670 nM
same,GI50,[8],28 nM
same,TGI,[8],1900 nM
same,GI50,[9],14600 nM
same,TGI,[9],29100 nM
same,GI50,[10],< 10.4 nM
same,TGI,[10],1520 nM
same,GI50,[11],26.5 nM
same,TGI,[11],1280 nM
same,GI50,[12],< 10.4 nM
same,TGI,[12],1350 nM
same,GI50,[13],< 10 nM
same,TGI,[13],< 10 nM
same,GI50,[14],< 10 nM
same,TGI,[14],274 nM
same,GI50,[15],< 10 nM
same,TGI,[15],48.6 nM
same,GI50,[16],46 nM
same,TGI,[16],1120 nM
same,GI50,[17],54.5 nM
same,TGI,[17],2300 nM
same,GI50,[18],52.2 nM
same,TGI,[18],4200 nM
same,GI50,[19],26.9 nM
same,TGI,[19],1680 nM
same,GI50,[20],< 10 nM
same,TGI,[20],20.4 nM
same,GI50,[21],53.8 nM
same,TGI,[21],2430 nM
same,GI50,[22],27.7 nM
same,TGI,[22],597 nM
same,GI50,[23],< 10 nM
same,TGI,[23],< 10 nM
same,GI50,[24],262 nM
same,TGI,[24],17400 nM
same,GI50,[25],15.9 nM
same,TGI,[25],70.1 nM
same,GI50,[26],16 nM
same,TGI,[26],87.4 nM
same,GI50,[27],36.2 nM
same,TGI,[27],2300 nM
same,GI50,[28],43.1 nM
same,TGI,[28],985 nM
same,GI50,[29],< 12.8 nM
same,TGI,[29],116 nM
same,GI50,[30],1030 nM
same,TGI,[30],3240 nM
same,GI50,[31],< 10 nM
same,TGI,[31],20 nM
same,GI50,[32],< 10 nM
same,TGI,[32],1340 nM
same,GI50,[33],< 10 nM
same,TGI,[33],1310 nM
same,GI50,[34],< 15.4 nM
same,TGI,[34],1440 nM
same,GI50,[35],< 19 nM
same,TGI,[35],256 nM
same,GI50,[36],27.4 nM
same,TGI,[36],92.3 nM
same,GI50,[37],22 nM
same,TGI,[37],564 nM
same,GI50,[38],< 10 nM
same,TGI,[38],653 nM
same,GI50,[39],< 14.3 nM
same,TGI,[39],280 nM
same,GI50,[40],179 nM
same,TGI,[40],2050 nM
same,GI50,[41],15.7 nM
same,TGI,[41],1180 nM
same,GI50,[42],< 10 nM
same,TGI,[42],1400 nM
same,GI50,[43],28.2 nM
same,TGI,[43],363 nM
same,GI50,[44],< 10 nM
same,TGI,[44],1080 nM
same,GI50,[45],374 nM
same,TGI,[45],1790 nM
same,GI50,[46],45.3 nM
same,TGI,[46],1560 nM
same,GI50,[47],17.9 nM
same,TGI,[47],49.8 nM
same,GI50,[48],34.3 nM
same,TGI,[48],1570 nM
same,GI50,[49],77.4 nM
same,TGI,[49],4320 nM
same,GI50,[50],< 10 nM
same,TGI,[50],1230 nM
same,GI50,[51],< 31 nM
same,TGI,[51],1190 nM
same,GI50,[52],210 nM
same,TGI,[52],2090 nM
same,GI50,[53],50 nM
same,TGI,[53],1820 nM
same,GI50,[54],< 14.5 nM
same,TGI,[54],788 nM
same,GI50,[55],< 10 nM
same,TGI,[55],< 10 nM
same,GI50,[56],139 nM
same,TGI,[56],1880 nM
same,GI50,[57],< 10 nM
same,TGI,[57],180 nM
O=C1N[C@@H](Cc2ccccc2)C(=O)N2CCC[C@@H]2C(=O)N[C@@H](CCCCCC(=O)[C@@H]2CO2)C(=O)N[C@H]1Cc1ccccc1 (cyclo(FF[dP][Aoe])),GI50,[9],0.732 nM and 2.14 nM
same,GI50,[16],4.26 nM and 6.89 nM
same,TGI,[16],2120 nM and 458 nM
same,TGI,[24],> 2130 nM
same,TGI,[52],1600 nM
[O-][n+]1ccccc1S,TGI,[2],20300 nM
same,TGI,[4],> 100000 nM
same,TGI,[5],> 100000 nM
same,TGI,[6],> 100000 nM
same,TGI,[7],> 100000 nM
same,TGI,[8],> 100000 nM
same,TGI,[9],64400 nM
same,GI50,[10],3610 nM
same,TGI,[10],> 100000 nM
same,TGI,[11],38500 nM
same,TGI,[12],> 100000 nM
same,TGI,[13],8090 nM
same,TGI,[14],8330 nM
same,TGI,[16],> 100000 nM
same,TGI,[17],> 100000 nM
same,TGI,[18],> 100000 nM
same,TGI,[19],> 100000 nM
same,TGI,[20],2780 nM
same,TGI,[21],9130 nM
same,GI50,[22],1930 nM
same,TGI,[22],> 100000 nM
same,TGI,[24],> 100000 nM
same,TGI,[25],> 100000 nM
same,TGI,[26],6470 nM
same,TGI,[27],> 100000 nM
same,GI50,[28],6730 nM
same,TGI,[28],> 100000 nM
same,TGI,[29],30900 nM
same,GI50,[30],6270 nM
same,TGI,[30],> 100000 nM
same,GI50,[31],5170 nM
same,TGI,[31],> 100000 nM
same,TGI,[32],> 100000 nM
same,TGI,[33],23100 nM
same,TGI,[34],> 100000 nM
same,GI50,[35],3480 nM
same,TGI,[35],46800 nM
same,TGI,[36],1700 nM
same,TGI,[37],5140 nM
same,TGI,[38],> 100000 nM
same,TGI,[39],2320 nM
same,TGI,[40],13100 nM
same,TGI,[41],4090 nM
same,TGI,[42],29600 nM
same,TGI,[43],5210 nM
same,TGI,[44],4500 nM
same,TGI,[45],4710 nM
same,TGI,[46],> 100000 nM
same,TGI,[47],> 100000 nM
same,TGI,[48],> 100000 nM
same,TGI,[49],> 100000 nM
same,TGI,[50],> 100000 nM
same,GI50,[51],27100 nM
same,TGI,[51],> 100000 nM
same,GI50,[58],2910 nM
same,TGI,[58],56400 nM
same,TGI,[52],> 100000 nM
same,TGI,[53],4400 nM
same,GI50,[55],3170 nM
same,TGI,[55],> 100000 nM
same,TGI,[56],89100 nM
same,TGI,[57],9510 nM
